Test results published in ChEMBL document CHEMBL1153464.

Key:
[1] = molecular target: Vascular endothelial growth factor receptor 2 (Homo sapiens) (UniProt P35968); assay: Inhibition of VEGFR2 at 10 uM by HotSpot assay relative to control
[2] = molecular target: Mast/stem cell growth factor receptor Kit (Homo sapiens) (UniProt P10721); assay: Inhibition of c-kit at 10 uM by HotSpot assay relative to control
[3] = molecular target: Serine/threonine-protein kinase 26 (Homo sapiens) (UniProt Q9P289); assay: Inhibition of MST4 at 10 uM by HotSpot assay relative to control
[4] = molecular target: Tyrosine-protein kinase SYK (Homo sapiens) (UniProt P43405); assay: Inhibition of SYK at 10 uM by HotSpot assay relative to control
[5] = molecular target: DNA-dependent protein kinase catalytic subunit (Homo sapiens) (UniProt P78527); assay: Inhibition of DNA-PK at 10 uM by HotSpot assay relative to control
[6] = molecular target: Tyrosine-protein kinase Fyn (Homo sapiens) (UniProt P06241); assay: Inhibition of FYN at 10 uM by HotSpot assay relative to control
[7] = tested on: RAC-alpha serine/threonine-protein kinase (Homo sapiens), P31749 [S473D]; assay: Inhibition of AKT1 dPH, S473D mutant at 10 uM by HotSpot assay relative to control
[8] = molecular target: Proto-oncogene tyrosine-protein kinase Src (Homo sapiens) (UniProt P12931); assay: Inhibition of c-Src at 10 uM by HotSpot assay relative to control
[9] = molecular target: Tyrosine-protein kinase Fgr (Homo sapiens) (UniProt P09769); assay: Inhibition of FGR at 10 uM by HotSpot assay relative to control
[10] = molecular target: Cyclin-dependent kinase 1/cyclin B1 (Homo sapiens) (UniProt P06493+P14635); assay: Inhibition of CDK1/Cyclin B at 10 uM by HotSpot assay relative to control; assay type: protein-complex assay
[11] = molecular target: Serine/threonine-protein kinase Chk1 (Homo sapiens) (UniProt O14757); assay: Inhibition of CHEK1 at 10 uM by HotSpot assay relative to control
[12] = molecular target: Serine/threonine-protein kinase B-raf (Homo sapiens) (UniProt P15056); assay: Inhibition of BRAF at 10 uM by HotSpot assay relative to control
[13] = molecular target: High affinity nerve growth factor receptor (Homo sapiens) (UniProt P04629); assay: Inhibition of TRKA at 10 uM by HotSpot assay relative to control
[14] = molecular target: Tyrosine-protein kinase JAK1 (Homo sapiens) (UniProt P23458); assay: Inhibition of JAK1 at 10 uM by HotSpot assay relative to control
[15] = molecular target: Epidermal growth factor receptor (Homo sapiens) (UniProt P00533); assay: Inhibition of EGFR at 10 uM by HotSpot assay relative to control
[16] = molecular target: Focal adhesion kinase 1 (PTK2/FAK) (Homo sapiens) (UniProt Q05397); assay: Inhibition of PTK2 at 10 uM by HotSpot assay relative to control
[17] = molecular target: Ribosomal protein S6 kinase beta-1 (Homo sapiens) (UniProt P23443); assay: Inhibition of p70S6K at 10 uM by HotSpot assay relative to control
[18] = molecular target: Tyrosine-protein kinase Lyn (Homo sapiens) (UniProt P07948); assay: Inhibition of LYN at 10 uM by HotSpot assay relative to control
[19] = molecular target: Mitogen-activated protein kinase 14 (Homo sapiens) (UniProt Q16539); assay: Inhibition of p38-alpha at 10 uM by HotSpot assay relative to control
[20] = molecular target: Inhibitor of nuclear factor kappa-B kinase subunit alpha (Homo sapiens) (UniProt O15111); assay: Inhibition of IKK-alpha at 10 uM by HotSpot assay relative to control
[21] = molecular target: Aurora kinase A (Homo sapiens) (UniProt O14965); assay: Inhibition of Aurora-A at 10 uM by HotSpot assay relative to control
[22] = molecular target: Protein kinase C alpha type (Homo sapiens) (UniProt P17252); assay: Inhibition of PKCalpha at 10 uM by HotSpot assay relative to control
[23] = molecular target: Tyrosine-protein kinase Lck (Homo sapiens) (UniProt P06239); assay: Inhibition of LCK at 10 uM by HotSpot assay relative to control
[24] = molecular target: RAF proto-oncogene serine/threonine-protein kinase (Homo sapiens) (UniProt P04049); assay: Inhibition of RAF1 at 10 uM by HotSpot assay relative to control
[25] = molecular target: Ephrin type-A receptor 1 (Homo sapiens) (UniProt P21709); assay: Inhibition of EPHA1 at 10 uM by HotSpot assay relative to control
[26] = molecular target: Death-associated protein kinase 1 (Homo sapiens) (UniProt P53355); assay: Inhibition of DAPK1 at 10 uM by HotSpot assay relative to control
[27] = molecular target: Serine/threonine-protein kinase PLK1 (Homo sapiens) (UniProt P53350); assay: Inhibition of PLK1 at 10 uM by HotSpot assay relative to control
[28] = molecular target: Fibroblast growth factor receptor 1 (Homo sapiens) (UniProt P11362); assay: Inhibition of FGFR1 at 10 uM by HotSpot assay relative to control
[29] = molecular target: Muscle, skeletal receptor tyrosine-protein kinase (Homo sapiens) (UniProt O15146); assay: Inhibition of MUSK at 10 uM by HotSpot assay relative to control
[30] = molecular target: Hepatocyte growth factor receptor (Homo sapiens) (UniProt P08581); assay: Inhibition of c-MET at 10 uM by HotSpot assay relative to control
[31] = molecular target: Serine/threonine-protein kinase pim-1 (Homo sapiens) (UniProt P11309); assay: Inhibition of PIM1 at 10 uM by HotSpot assay relative to control
[32] = molecular target: Proto-oncogene tyrosine-protein kinase ROS (Homo sapiens) (UniProt P08922); assay: Inhibition of ROS1 at 10 uM by HotSpot assay relative to control
[33] = molecular target: Angiopoietin-1 receptor (Homo sapiens) (UniProt Q02763); assay: Inhibition of TIE2 at 10 uM by HotSpot assay relative to control
[34] = molecular target: Rho-associated protein kinase 1 (Homo sapiens) (UniProt Q13464); assay: Inhibition of ROCK-I at 10 uM by HotSpot assay relative to control
[35] = molecular target: Proto-oncogene tyrosine-protein kinase receptor Ret (Homo sapiens) (UniProt P07949); assay: Inhibition of RET at 10 uM by HotSpot assay relative to control
[36] = molecular target: Casein kinase I isoform epsilon (Homo sapiens) (UniProt P49674); assay: Inhibition of CK1epsilon at 10 uM by HotSpot assay relative to control
[37] = molecular target: Dual specificity mitogen-activated protein kinase kinase 1 (Homo sapiens) (UniProt Q02750); assay: Inhibition of MEK1 at 10 uM by HotSpot assay relative to control
[38] = molecular target: Tyrosine-protein kinase ABL1 (Homo sapiens) (UniProt P00519); assay: Inhibition of Abl at 10 uM by HotSpot assay relative to control
[39] = molecular target: Homeodomain-interacting protein kinase 1 (Homo sapiens) (UniProt Q86Z02); assay: Inhibition of HIPK1 at 10 uM by HotSpot assay relative to control
[40] = molecular target: Macrophage-stimulating protein receptor (Homo sapiens) (UniProt Q04912); assay: Inhibition of MST1R at 10 uM by HotSpot assay relative to control
[41] = molecular target: Tyrosine-protein kinase Yes (Homo sapiens) (UniProt P07947); assay: Inhibition of YES at 10 uM by HotSpot assay relative to control
[42] = molecular target: Insulin receptor (Homo sapiens) (UniProt P06213); assay: Inhibition of IR at 10 uM by HotSpot assay relative to control
[43] = molecular target: Vascular endothelial growth factor receptor 1 (Homo sapiens) (UniProt P17948); assay: Inhibition of FLT1 at 10 uM by HotSpot assay relative to control
[44] = molecular target: Mitogen-activated protein kinase 8 (Homo sapiens) (UniProt P45983); assay: Inhibition of JNK1-alpha-1 at 10 uM by HotSpot assay relative to control
[45] = molecular target: Serine/threonine-protein kinase PAK 4 (Homo sapiens) (UniProt O96013); assay: Inhibition of PAK4 at 10 uM by HotSpot assay relative to control

Sequence of Focal adhesion kinase 1 (PTK2/FAK) (Homo sapiens) (Q05397 whole entry, looked up): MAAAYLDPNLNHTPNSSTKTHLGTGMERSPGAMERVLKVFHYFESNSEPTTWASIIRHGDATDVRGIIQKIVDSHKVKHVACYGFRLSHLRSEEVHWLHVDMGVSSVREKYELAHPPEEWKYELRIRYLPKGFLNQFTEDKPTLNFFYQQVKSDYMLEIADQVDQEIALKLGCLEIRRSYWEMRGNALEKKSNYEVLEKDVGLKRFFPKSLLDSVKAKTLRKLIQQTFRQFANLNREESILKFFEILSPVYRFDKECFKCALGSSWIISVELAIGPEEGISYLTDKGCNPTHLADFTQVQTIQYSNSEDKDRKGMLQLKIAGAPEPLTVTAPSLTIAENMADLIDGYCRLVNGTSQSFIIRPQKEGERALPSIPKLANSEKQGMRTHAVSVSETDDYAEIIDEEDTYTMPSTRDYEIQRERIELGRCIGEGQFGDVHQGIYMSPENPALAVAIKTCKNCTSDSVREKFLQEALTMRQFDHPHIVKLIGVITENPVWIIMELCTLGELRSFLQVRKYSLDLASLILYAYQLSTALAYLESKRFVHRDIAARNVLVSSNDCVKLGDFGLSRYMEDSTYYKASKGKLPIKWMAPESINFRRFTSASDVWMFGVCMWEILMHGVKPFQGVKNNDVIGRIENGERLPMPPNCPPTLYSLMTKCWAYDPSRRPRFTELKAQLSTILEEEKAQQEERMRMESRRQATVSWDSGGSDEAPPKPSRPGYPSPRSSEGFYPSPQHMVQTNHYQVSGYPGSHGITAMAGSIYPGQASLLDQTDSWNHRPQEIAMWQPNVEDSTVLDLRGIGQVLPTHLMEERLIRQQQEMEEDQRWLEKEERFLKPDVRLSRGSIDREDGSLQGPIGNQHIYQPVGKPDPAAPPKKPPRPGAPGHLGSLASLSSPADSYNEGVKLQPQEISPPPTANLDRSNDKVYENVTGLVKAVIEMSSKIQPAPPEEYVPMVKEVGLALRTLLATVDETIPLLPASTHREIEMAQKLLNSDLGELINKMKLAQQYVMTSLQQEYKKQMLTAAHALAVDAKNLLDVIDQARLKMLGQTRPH
Sequence of High affinity nerve growth factor receptor (Homo sapiens) (P04629 33-796 limits assumed): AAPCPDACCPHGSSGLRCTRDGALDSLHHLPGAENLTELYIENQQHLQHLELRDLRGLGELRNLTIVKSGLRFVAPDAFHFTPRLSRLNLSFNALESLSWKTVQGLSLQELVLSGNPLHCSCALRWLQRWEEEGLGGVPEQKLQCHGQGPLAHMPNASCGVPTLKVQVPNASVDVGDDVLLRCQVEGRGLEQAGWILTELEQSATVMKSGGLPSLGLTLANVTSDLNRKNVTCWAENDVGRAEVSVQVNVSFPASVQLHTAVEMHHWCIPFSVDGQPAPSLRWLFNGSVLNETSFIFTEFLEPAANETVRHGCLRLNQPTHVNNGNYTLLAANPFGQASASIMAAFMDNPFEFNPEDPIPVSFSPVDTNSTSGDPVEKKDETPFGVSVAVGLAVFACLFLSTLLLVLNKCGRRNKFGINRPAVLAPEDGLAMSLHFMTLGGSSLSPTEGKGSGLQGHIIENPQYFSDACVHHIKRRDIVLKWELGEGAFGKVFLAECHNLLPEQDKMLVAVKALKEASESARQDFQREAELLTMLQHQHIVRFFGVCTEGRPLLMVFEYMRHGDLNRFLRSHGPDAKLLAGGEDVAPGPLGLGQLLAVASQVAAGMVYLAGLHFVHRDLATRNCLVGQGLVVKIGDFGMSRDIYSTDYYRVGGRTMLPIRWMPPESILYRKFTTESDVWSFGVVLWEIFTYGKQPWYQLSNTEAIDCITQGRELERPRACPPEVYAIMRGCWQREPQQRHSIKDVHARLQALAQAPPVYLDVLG
Sequence of Dual specificity mitogen-activated protein kinase kinase 1 (Homo sapiens) (Q02750 whole entry): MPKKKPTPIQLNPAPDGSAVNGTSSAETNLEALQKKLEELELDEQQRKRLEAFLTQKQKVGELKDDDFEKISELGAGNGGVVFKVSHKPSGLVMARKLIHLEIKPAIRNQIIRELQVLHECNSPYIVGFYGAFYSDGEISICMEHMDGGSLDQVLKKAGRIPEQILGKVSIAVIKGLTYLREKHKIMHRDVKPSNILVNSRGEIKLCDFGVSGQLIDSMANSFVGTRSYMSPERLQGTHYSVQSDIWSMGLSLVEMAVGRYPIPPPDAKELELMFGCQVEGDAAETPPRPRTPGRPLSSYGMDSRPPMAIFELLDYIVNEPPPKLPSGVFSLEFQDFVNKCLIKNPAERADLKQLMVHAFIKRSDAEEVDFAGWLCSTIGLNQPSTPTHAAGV
Sequence of Proto-oncogene tyrosine-protein kinase Src (Homo sapiens) (P12931 2-536 limits assumed): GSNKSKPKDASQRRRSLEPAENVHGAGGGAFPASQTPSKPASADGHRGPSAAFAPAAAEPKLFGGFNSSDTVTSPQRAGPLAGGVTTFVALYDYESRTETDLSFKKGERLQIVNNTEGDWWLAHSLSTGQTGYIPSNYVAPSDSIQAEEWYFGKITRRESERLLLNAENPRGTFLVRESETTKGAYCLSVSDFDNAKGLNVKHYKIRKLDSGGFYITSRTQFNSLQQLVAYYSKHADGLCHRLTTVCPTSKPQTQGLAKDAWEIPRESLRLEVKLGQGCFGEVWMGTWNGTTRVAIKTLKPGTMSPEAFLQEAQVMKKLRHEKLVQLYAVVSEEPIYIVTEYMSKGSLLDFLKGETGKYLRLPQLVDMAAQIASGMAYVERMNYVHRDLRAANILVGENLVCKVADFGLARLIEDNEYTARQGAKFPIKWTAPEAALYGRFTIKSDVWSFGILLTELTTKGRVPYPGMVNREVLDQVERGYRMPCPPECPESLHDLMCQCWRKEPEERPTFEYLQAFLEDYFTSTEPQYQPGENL
Sequence of Vascular endothelial growth factor receptor 1 (Homo sapiens) (P17948 whole entry): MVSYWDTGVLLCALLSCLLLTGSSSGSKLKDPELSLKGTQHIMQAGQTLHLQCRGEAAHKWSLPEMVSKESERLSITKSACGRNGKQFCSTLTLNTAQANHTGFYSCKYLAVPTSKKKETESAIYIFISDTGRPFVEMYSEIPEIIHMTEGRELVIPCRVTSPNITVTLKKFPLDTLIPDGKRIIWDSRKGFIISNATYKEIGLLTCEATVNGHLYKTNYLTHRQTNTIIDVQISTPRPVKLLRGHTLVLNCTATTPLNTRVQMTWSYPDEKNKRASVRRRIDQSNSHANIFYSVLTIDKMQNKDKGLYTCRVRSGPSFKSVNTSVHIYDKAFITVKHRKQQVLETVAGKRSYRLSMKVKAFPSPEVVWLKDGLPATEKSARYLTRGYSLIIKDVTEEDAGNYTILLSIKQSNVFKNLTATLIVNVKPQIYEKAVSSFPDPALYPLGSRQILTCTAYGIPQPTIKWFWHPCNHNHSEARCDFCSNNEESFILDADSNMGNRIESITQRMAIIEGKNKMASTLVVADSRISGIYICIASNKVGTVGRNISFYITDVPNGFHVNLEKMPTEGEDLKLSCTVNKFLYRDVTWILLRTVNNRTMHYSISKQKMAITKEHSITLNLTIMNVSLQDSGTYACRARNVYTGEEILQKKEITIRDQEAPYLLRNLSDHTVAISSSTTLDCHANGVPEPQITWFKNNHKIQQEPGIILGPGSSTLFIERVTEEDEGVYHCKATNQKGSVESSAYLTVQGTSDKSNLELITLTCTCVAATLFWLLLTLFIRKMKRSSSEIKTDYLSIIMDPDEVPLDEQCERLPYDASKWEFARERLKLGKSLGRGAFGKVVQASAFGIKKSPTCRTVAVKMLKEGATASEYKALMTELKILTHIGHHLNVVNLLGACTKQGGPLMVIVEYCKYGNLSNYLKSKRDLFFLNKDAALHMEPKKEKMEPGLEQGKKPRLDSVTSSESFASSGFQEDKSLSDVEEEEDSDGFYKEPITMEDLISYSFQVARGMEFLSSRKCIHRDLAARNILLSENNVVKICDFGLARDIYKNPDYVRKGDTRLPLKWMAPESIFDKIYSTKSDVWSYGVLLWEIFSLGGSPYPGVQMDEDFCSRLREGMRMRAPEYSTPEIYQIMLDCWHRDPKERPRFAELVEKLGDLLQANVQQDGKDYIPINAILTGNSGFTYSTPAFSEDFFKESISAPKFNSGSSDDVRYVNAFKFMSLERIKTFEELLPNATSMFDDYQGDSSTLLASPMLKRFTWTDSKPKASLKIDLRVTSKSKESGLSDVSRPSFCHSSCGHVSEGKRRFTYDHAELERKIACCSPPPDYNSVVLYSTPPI
Sequence of Tyrosine-protein kinase Lyn (Homo sapiens) (P07948 2-512 limits assumed): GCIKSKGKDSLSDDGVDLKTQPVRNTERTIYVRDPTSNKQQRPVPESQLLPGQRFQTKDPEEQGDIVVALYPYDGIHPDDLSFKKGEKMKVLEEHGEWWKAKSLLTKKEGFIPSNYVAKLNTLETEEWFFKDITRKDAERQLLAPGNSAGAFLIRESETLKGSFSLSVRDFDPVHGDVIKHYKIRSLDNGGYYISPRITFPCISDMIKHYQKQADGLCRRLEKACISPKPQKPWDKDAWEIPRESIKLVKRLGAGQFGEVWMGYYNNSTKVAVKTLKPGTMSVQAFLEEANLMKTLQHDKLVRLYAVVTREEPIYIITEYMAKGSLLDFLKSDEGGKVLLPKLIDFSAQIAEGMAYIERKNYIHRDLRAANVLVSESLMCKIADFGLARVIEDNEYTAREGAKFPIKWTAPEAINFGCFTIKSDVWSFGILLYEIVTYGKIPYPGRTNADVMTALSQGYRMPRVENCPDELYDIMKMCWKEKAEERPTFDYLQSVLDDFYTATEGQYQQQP
Sequence of Serine/threonine-protein kinase 26 (Homo sapiens) (Q9P289 2-416 limits assumed): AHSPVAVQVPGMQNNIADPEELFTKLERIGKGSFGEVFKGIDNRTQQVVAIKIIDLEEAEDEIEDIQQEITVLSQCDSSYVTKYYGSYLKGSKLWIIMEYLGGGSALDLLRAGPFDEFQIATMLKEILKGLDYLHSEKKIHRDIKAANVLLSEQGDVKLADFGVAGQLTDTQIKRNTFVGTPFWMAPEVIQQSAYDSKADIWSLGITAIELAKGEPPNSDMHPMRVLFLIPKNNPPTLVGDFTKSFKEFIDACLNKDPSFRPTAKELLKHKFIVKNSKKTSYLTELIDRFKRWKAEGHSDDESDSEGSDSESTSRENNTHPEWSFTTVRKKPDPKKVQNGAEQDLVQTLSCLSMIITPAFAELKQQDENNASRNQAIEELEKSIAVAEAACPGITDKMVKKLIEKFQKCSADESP

Cc1cc(O)cc(-c2nn(CC#N)cc2-c2cc(NC[C@H](C)O)nc(-c3cccnc3)n2)c1
inhibition [1]: -5.84% | inhibition [2]: 2.85% | inhibition [3]: -1.54% | inhibition [4]: 8.23% | inhibition [5]: 6.56% | inhibition [6]: -7.86% | inhibition [7]: -2.97% | inhibition [8]: 16.2% | inhibition [9]: 3.34% | inhibition [10]: 3.64% | inhibition [11]: 2.36% | inhibition [12]: 8.97% | inhibition [13]: -0.14% | inhibition [14]: 9.15% | inhibition [15]: -2.23% | inhibition [16]: 3.43% | inhibition [17]: 5.79% | inhibition [18]: -1.45% | inhibition [19]: 5.27% | inhibition [20]: 1.37% | inhibition [21]: 21.8% | inhibition [22]: 9.23% | inhibition [23]: 10.3% | inhibition [24]: 20.4% | inhibition [25]: 23.3% | inhibition [26]: -1.17% | inhibition [27]: 5.85% | inhibition [28]: -8.05% | inhibition [29]: -0.42% | inhibition [30]: 5.82% | inhibition [31]: 5.91% | inhibition [32]: 93.9% | inhibition [33]: 8.17% | inhibition [34]: 11.7% | inhibition [35]: 6.65% | inhibition [36]: 9.32% | inhibition [37]: -6.97% | inhibition [38]: 20.4% | inhibition [39]: -3.43% | inhibition [40]: 28.8% | inhibition [41]: -2.59% | inhibition [42]: 7.01% | inhibition [43]: -1.67% | inhibition [44]: 3.83% | inhibition [45]: 1.37%
